In brackets after ≈: the same amount, converted by molar mass.
Legend:
physchem = conditions: buffer
in vitro [1] = conditions: human, microsomes
in vitro [2] = conditions: rat, microsomes
in vivo [3] = conditions: Wistar, rat, iv, 1 mg/kg
in vivo [4] = conditions: Wistar, rat, po, 1 mg/kg
in vivo [5] = conditions: Wistar, rat, 1 mg/kg

`C[C@@H]1CC[C@H](C)N1C(=O)c1ccc([C@@H](C)NC(=O)C2(NC(=O)c3cc(F)cc(C(F)(F)F)c3)CC2)c(F)c1` showed a solubility (physchem) of 42 µM (≈ 22.6 µg/mL), a remaining at 1 h (in vitro [1]) of 9% and a remaining at 1 h (in vitro [2]) of 45%.
Work on `CCN(NC(=O)C(F)(F)F)C(=O)N[C@H](C)c1ncc(-c2cc(Cl)cc(Cl)c2OCC(F)F)cc1F` yielded a clearance (in vivo [3]) of 7 mL/min/kg, a bioavailability (in vivo [4]) greater than 44% and a half-life (in vivo [5]) of 2.25 h.

Source: ChEMBL document CHEMBL1157727, “Novel small molecule bradykinin B1 receptor antagonists. Part 1: benzamides and semicarbazides” (Bioorg Med Chem Lett, 2010)
